T1: FtAlkB (Fontimonas thermophila, UniProt A0A1I2KHB9)
T1 construct: gene SAMN04488120_1209; residues 4-399, codon optimized, pRSF vector, E. coli BL21 (DE3), 3C protease digestion (tag cut), DDM-solubilized; 45 kD; cryo-EM with nanobody AP32; lysate assays with AlkG and AlkT as redox partners
T1 sequence (A0A1I2KHB9 4-399): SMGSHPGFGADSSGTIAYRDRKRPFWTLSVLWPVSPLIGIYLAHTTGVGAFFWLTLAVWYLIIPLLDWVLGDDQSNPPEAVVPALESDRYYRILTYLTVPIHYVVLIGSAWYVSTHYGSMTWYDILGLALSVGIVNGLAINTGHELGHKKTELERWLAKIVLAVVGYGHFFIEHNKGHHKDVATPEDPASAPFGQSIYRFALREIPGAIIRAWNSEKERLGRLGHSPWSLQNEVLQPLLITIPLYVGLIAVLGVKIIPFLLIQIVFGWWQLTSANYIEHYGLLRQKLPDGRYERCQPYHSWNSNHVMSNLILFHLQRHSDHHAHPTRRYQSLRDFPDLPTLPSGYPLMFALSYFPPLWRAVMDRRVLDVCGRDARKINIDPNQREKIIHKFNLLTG

T2: Fontimonas thermophila alkane monooxygenase AlkB (FtAlkB), amino acids 4-399 (Fontimonas thermophila)
T2 construct: Alkane monooxygenase AlkB of Fontimonas thermophila, amino acids 4-399, codon optimized, in pRSF vector; Membrane protein kept in DDM (0.02% in SEC buffer); source: E. coli BL21 (DE3), solubilized in 1% DDM, purified (cobalt resin, 3C protease digestion, SEC)
T2 chain: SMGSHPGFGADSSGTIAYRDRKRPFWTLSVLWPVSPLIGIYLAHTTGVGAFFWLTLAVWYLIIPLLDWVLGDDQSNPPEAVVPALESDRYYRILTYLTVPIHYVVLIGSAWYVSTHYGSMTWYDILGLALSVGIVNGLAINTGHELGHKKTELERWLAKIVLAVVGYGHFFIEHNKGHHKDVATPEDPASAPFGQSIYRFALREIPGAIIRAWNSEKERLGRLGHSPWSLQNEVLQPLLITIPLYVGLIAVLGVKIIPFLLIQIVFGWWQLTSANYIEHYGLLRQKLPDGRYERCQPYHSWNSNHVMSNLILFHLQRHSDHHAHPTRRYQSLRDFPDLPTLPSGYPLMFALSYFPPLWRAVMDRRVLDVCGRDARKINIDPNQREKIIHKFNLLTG


How the values were obtained:
[1] = molecular target: T1, FtAlkB; assay: GC-MS alkane hydroxylation assay, purified enzyme; format: biochemical; settings: purified AlkG, maize ferredoxin reductase, NADPH; 37 °C
[2] = molecular target: T2, Fontimonas thermophila alkane …; assay: cryo-EM structure; FtAlkB-nanobody AP32 complex in 20 mM HEPES pH 7.4, 150 mM NaCl, 0.02% DDM; single-particle cryo-EM, 3.59 Å for FtAlkB-nanobody (3.45 Å with a mask on FtAlkB only); settings: both partners purified

binding result [2]	Molecule	GC-MS alkane hydroxylation assay, purified enzyme [1]
–	CCCCCCCC [octane]	FtAlkB displayed robust alkane hydroxylase activities on a model alkane octane
binds	Nanobody AP32 (anti-FtAlkB nanobody) (VHH, Synthetic nanobody from a library after three runs of selection; the model was started from the nanobody of PDB 7SL8 with the CDRs rebuilt, so 7SL8 is not this nanobody; also called FtAlkB-specific nanobody; source: E. coli BL21 (DE3), purified) VHH: QVQLQESGGGLVQAGGSLRLSCAASGTISRYWTMGWYRQAPGKERELVAGISEGGSTNYADSVKGRFTISRDNAKNTVYLQMNSLKPEDTAVYYCAVTYRGPWFNRDPHYYWGQGTQVTVSS	–

— PMC10110569, “Structure and mechanism of the alkane-oxidizing enzyme AlkB” (Nature Communications, 2023)
